Experimental findings from patent publication US6737438B2, “Substituted 1,2,4-trioxanes useful as antimalarial agents and a process for the preparation thereof” (Council of Scientific and Industrial Research, priority 2002, dated 2004) are described below.

One experiment relates to multidrug resistant strain of Plasmodium yoelii Nigeriensis. In words: Antimalarial activity against multidrug resistant P. yoelii in swiss mice. In kind it is in vivo. As to conditions: Plasmodium yoelii, 96 h, oral, 96 mg/kg, 4 consecutive days (day 0-3), parasitaemia vs vehicle control, read-out: % Suppression on Day 4.
As for `Brc1ccc(-c2ccc(C=CC3COC4(CCCCC4)OO3)cc2)cc1` (stereo not drawn) [Trioxane 7fc, 3-[(4′-bromo-[1,1′-biphenyl]-4-yl)-vinyl]-1,2,5-trioxaspiro (5,5) undecane], the inhibition in vivo at 96 mg/kg is 100%.

On to `Brc1ccc(-c2ccc(C=CC3COC4(CCCC4)OO3)cc2)cc1` (stereo not drawn) [Trioxane 7fe, 8-[(4′-bromo-[1,1′-biphenyl]-4yl)vinyl]-6,7,10-trioxaspiro (4,5) decane], for which the inhibition in vivo at 96 mg/kg amounted to 100%.

Staying with this experiment, now noted: Plasmodium yoelii, 672 h, oral, 96 mg/kg, observed till day 28, read-out: Cured/treated (converted).
Turning to `Brc1ccc(-c2ccc(C=CC3COC4(CCCCC4)OO3)cc2)cc1` (stereo not drawn) [Trioxane 7fc, 3-[(4′-bromo-[1,1′-biphenyl]-4-yl)-vinyl]-1,2,5-trioxaspiro (5,5) undecane], the responders at 96 mg/kg is 100%.

Take `Brc1ccc(-c2ccc(C=CC3COC4(CCCC4)OO3)cc2)cc1` (stereo not drawn) [Trioxane 7fe, 8-[(4′-bromo-[1,1′-biphenyl]-4yl)vinyl]-6,7,10-trioxaspiro (4,5) decane]: the responders at 96 mg/kg is 60%.

The experiment is the same for the next values; noted with them: Plasmodium yoelii, im, 96 h, i.m., 96 mg/kg, 4 consecutive days (day 0-3), parasitaemia vs vehicle control, read-out: % Suppression on Day 4.
Regarding `CC1(C)OCC(C=Cc2ccc(-c3ccc(Br)cc3)cc2)OO1` (stereo not drawn) [Trioxane 7fa, 3,3-Dimethyl-6-[(4′-bromo-[1,1′-biphenyl]-4-yl)-vinyl]-1,2,4-trioxane], the inhibition in vivo at 96 mg/kg is 83.7%.

For `Brc1ccc(-c2ccc(C=CC3COC4(CCCCC4)OO3)cc2)cc1` (stereo not drawn) [Trioxane 7fc, 3-[(4′-bromo-[1,1′-biphenyl]-4-yl)-vinyl]-1,2,5-trioxaspiro (5,5) undecane], the inhibition in vivo at 96 mg/kg worked out at 46.4%.

Regarding `Brc1ccc(-c2ccc(C=CC3COC4(CCCC4)OO3)cc2)cc1` (stereo not drawn) [Trioxane 7fe, 8-[(4′-bromo-[1,1′-biphenyl]-4yl)vinyl]-6,7,10-trioxaspiro (4,5) decane], the inhibition in vivo at 96 mg/kg is 89.4%.

The same experiment, now with this note: Plasmodium yoelii, im, 672 h, i.m., 96 mg/kg, observed till day 28, read-out: Cured/treated (converted).
With `CC1(C)OCC(C=Cc2ccc(-c3ccc(Br)cc3)cc2)OO1` (stereo not drawn) [Trioxane 7fa, 3,3-Dimethyl-6-[(4′-bromo-[1,1′-biphenyl]-4-yl)-vinyl]-1,2,4-trioxane], the responders at 96 mg/kg was 0%.

As to `Brc1ccc(-c2ccc(C=CC3COC4(CCCCC4)OO3)cc2)cc1` (stereo not drawn) [Trioxane 7fc, 3-[(4′-bromo-[1,1′-biphenyl]-4-yl)-vinyl]-1,2,5-trioxaspiro (5,5) undecane], the responders at 96 mg/kg was 20%.

Turning to `Brc1ccc(-c2ccc(C=CC3COC4(CCCC4)OO3)cc2)cc1` (stereo not drawn) [Trioxane 7fe, 8-[(4′-bromo-[1,1′-biphenyl]-4yl)vinyl]-6,7,10-trioxaspiro (4,5) decane], the responders at 96 mg/kg is 0%.

Still in this experiment, the particulars now being: i.m., 48 mg/kg, 4 consecutive days (day 0-3), parasitaemia vs vehicle control.
For the compound `C=C(c1ccc(-c2ccc(Br)cc2)cc1)C1COC2(CCC(C(C)(C)CC)CC2)OO1` (stereo not drawn) [Trioxane 7fd], the “% Suppression on Day 4” value came to 51.09%.

Still in this experiment, the particulars now being: i.m., 48 mg/kg, observed till day 28.
Consider `C=C(c1ccc(-c2ccc(Br)cc2)cc1)C1COC2(CCC(C(C)(C)CC)CC2)OO1` (stereo not drawn) [Trioxane 7fd], for which the Cured/treated is given as 0/5.

The same experiment, now with this note: i.m., 96 mg/kg, 4 consecutive days (day 0-3), parasitaemia vs vehicle control.
Regarding `CCC1(C)OCC(C=Cc2ccc(-c3ccc(Br)cc3)cc2)OO1` (stereo not drawn) [Trioxane 7fb, 3-Ethyl-3-methly-6-[(4′-bromo-[1,1′-biphenyl]-4-yl)-vinyl]-1,2,4-trioxane], the “% Suppression on Day 4” value came out at 51.41%.

`C=C(c1ccc(-c2ccc(Br)cc2)cc1)C1COC2(CCC(c3ccccc3)CC2)OO1` (stereo not drawn) [Trioxane 7ff]: the “% Suppression on Day 4” value was found to be 46.1%.

Take `C=C(c1ccc(C2CCCC2)cc1)C1COC2(CC3CCC2C3)OO1` (stereo not drawn) [Trioxane 8a]: the “% Suppression on Day 4” value amounted to 81.23%.

`C=C(c1ccc(C2CCCCC2)cc1)C1COC2(CC3CCC2C3)OO1` (stereo not drawn) [Trioxane 8b]: the “% Suppression on Day 4” value is listed as 100%.

Turning to `C=C(c1ccc(C2CCCCCC2)cc1)C1COC2(CC3CCC2C3)OO1` (stereo not drawn) [Trioxane 8c], the “% Suppression on Day 4” value came to 43.55%.

Turning to `C=C(c1ccc(-c2ccccc2)cc1)C1COC2(CC3CCC2C3)OO1` (stereo not drawn) [Trioxane 8e], the “% Suppression on Day 4” value is reported as 100%.

On to `C=C(c1ccc(-c2ccc(Br)cc2)cc1)C1COC2(CC3CCC2C3)OO1` (stereo not drawn) [Trioxane 8f], for which the “% Suppression on Day 4” value is on record as 100%.

`C=C(c1ccc(C2CCCC2)cc1)C1COC2(OO1)C1CC3CC(C1)CC2C3` (stereo not drawn) [Trioxane 9a]: the “% Suppression on Day 4” value worked out at 81.23%.

For the compound `C=C(c1ccc(C2CCCCC2)cc1)C1COC2(OO1)C1CC3CC(C1)CC2C3` (stereo not drawn) [Trioxane 9b], the “% Suppression on Day 4” value was 82.16%.

The experiment is the same for the next values; noted with them: i.m., 96 mg/kg, observed till day 28.
Consider `CCC1(C)OCC(C=Cc2ccc(-c3ccc(Br)cc3)cc2)OO1` (stereo not drawn) [Trioxane 7fb, 3-Ethyl-3-methly-6-[(4′-bromo-[1,1′-biphenyl]-4-yl)-vinyl]-1,2,4-trioxane], for which the Cured/treated is listed as 0/5.

For `C=C(c1ccc(-c2ccc(Br)cc2)cc1)C1COC2(CCC(c3ccccc3)CC2)OO1` (stereo not drawn) [Trioxane 7ff], the Cured/treated is on record as 0/5.

Turning to `C=C(c1ccc(C2CCCC2)cc1)C1COC2(CC3CCC2C3)OO1` (stereo not drawn) [Trioxane 8a], the Cured/treated is listed as 0/5.

`C=C(c1ccc(C2CCCCC2)cc1)C1COC2(CC3CCC2C3)OO1` (stereo not drawn) [Trioxane 8b]: the Cured/treated is 3/5.

As for `C=C(c1ccc(C2CCCCCC2)cc1)C1COC2(CC3CCC2C3)OO1` (stereo not drawn) [Trioxane 8c], the Cured/treated is reported as 0/5.

In the case of `C=C(c1ccc(-c2ccccc2)cc1)C1COC2(CC3CCC2C3)OO1` (stereo not drawn) [Trioxane 8e], the Cured/treated is given as 1/4.

With `C=C(c1ccc(-c2ccc(Br)cc2)cc1)C1COC2(CC3CCC2C3)OO1` (stereo not drawn) [Trioxane 8f], the Cured/treated is 0/5.

With `C=C(c1ccc(C2CCCC2)cc1)C1COC2(OO1)C1CC3CC(C1)CC2C3` (stereo not drawn) [Trioxane 9a], the Cured/treated is on record as 0/5.

Consider `C=C(c1ccc(C2CCCCC2)cc1)C1COC2(OO1)C1CC3CC(C1)CC2C3` (stereo not drawn) [Trioxane 9b], for which the Cured/treated is 0/5.

The same experiment, now with this note: oral, 48 mg/kg, 4 consecutive days (day 0-3), parasitaemia vs vehicle control.
Consider `C=C(c1ccc(C2CCCCC2)cc1)C1COC2(CC3CCC2C3)OO1` (stereo not drawn) [Trioxane 8b], for which the “% Suppression on Day 4” value is on record as 100%.

The same experiment, now with this note: oral, 48 mg/kg, observed till day 28.
In the case of `C=C(c1ccc(C2CCCCC2)cc1)C1COC2(CC3CCC2C3)OO1` (stereo not drawn) [Trioxane 8b], the Cured/treated is 6/6.

Still in this experiment, the particulars now being: oral, 96 mg/kg, 4 consecutive days (day 0-3), parasitaemia vs vehicle control.
As to `CC1(C)OCC(C=Cc2ccc(-c3ccc(Br)cc3)cc2)OO1` (stereo not drawn) [Trioxane 7fa, 3,3-Dimethyl-6-[(4′-bromo-[1,1′-biphenyl]-4-yl)-vinyl]-1,2,4-trioxane], the “% Suppression on Day 4” value was “died”.

With `CCC1(C)OCC(C=Cc2ccc(-c3ccc(Br)cc3)cc2)OO1` (stereo not drawn) [Trioxane 7fb, 3-Ethyl-3-methly-6-[(4′-bromo-[1,1′-biphenyl]-4-yl)-vinyl]-1,2,4-trioxane], the “% Suppression on Day 4” value was 100%.

With `C=C(c1ccc(-c2ccc(Br)cc2)cc1)C1COC2(CCC(C(C)(C)CC)CC2)OO1` (stereo not drawn) [Trioxane 7fd], the “% Suppression on Day 4” value was 88.39%.

For the compound `C=C(c1ccc(-c2ccc(Br)cc2)cc1)C1COC2(CCC(c3ccccc3)CC2)OO1` (stereo not drawn) [Trioxane 7ff], the “% Suppression on Day 4” value is 100%.

On to `C=C(c1ccc(C2CCCC2)cc1)C1COC2(CC3CCC2C3)OO1` (stereo not drawn) [Trioxane 8a], for which the “% Suppression on Day 4” value was determined as 100%.

Turning to `C=C(c1ccc(C2CCCCCC2)cc1)C1COC2(CC3CCC2C3)OO1` (stereo not drawn) [Trioxane 8c], the “% Suppression on Day 4” value was 100%.

Take `C=C(c1ccc(-c2ccccc2)cc1)C1COC2(CC3CCC2C3)OO1` (stereo not drawn) [Trioxane 8e]: the “% Suppression on Day 4” value is reported as 100%.

As for `C=C(c1ccc(-c2ccc(Br)cc2)cc1)C1COC2(CC3CCC2C3)OO1` (stereo not drawn) [Trioxane 8f], the “% Suppression on Day 4” value is 100%.

On to `C=C(c1ccc(C2CCCC2)cc1)C1COC2(OO1)C1CC3CC(C1)CC2C3` (stereo not drawn) [Trioxane 9a], for which the “% Suppression on Day 4” value was 100%.

On to `C=C(c1ccc(C2CCCCC2)cc1)C1COC2(OO1)C1CC3CC(C1)CC2C3` (stereo not drawn) [Trioxane 9b], for which the “% Suppression on Day 4” value is listed as 100%.

The experiment is the same for the next values; noted with them: oral, 96 mg/kg, observed till day 28.
As to `CCC1(C)OCC(C=Cc2ccc(-c3ccc(Br)cc3)cc2)OO1` (stereo not drawn) [Trioxane 7fb, 3-Ethyl-3-methly-6-[(4′-bromo-[1,1′-biphenyl]-4-yl)-vinyl]-1,2,4-trioxane], the Cured/treated is 0/5.

For `C=C(c1ccc(-c2ccc(Br)cc2)cc1)C1COC2(CCC(C(C)(C)CC)CC2)OO1` (stereo not drawn) [Trioxane 7fd], the Cured/treated is reported as 0/5.

As to `C=C(c1ccc(-c2ccc(Br)cc2)cc1)C1COC2(CCC(c3ccccc3)CC2)OO1` (stereo not drawn) [Trioxane 7ff], the Cured/treated is 2/5.

Consider `C=C(c1ccc(C2CCCC2)cc1)C1COC2(CC3CCC2C3)OO1` (stereo not drawn) [Trioxane 8a], for which the Cured/treated is listed as 5/5.

For `C=C(c1ccc(C2CCCCCC2)cc1)C1COC2(CC3CCC2C3)OO1` (stereo not drawn) [Trioxane 8c], the Cured/treated is on record as 3/5.

Take `C=C(c1ccc(-c2ccccc2)cc1)C1COC2(CC3CCC2C3)OO1` (stereo not drawn) [Trioxane 8e]: the Cured/treated is on record as 4/4.

For the compound `C=C(c1ccc(-c2ccc(Br)cc2)cc1)C1COC2(CC3CCC2C3)OO1` (stereo not drawn) [Trioxane 8f], the Cured/treated is recorded as 5/5.

For `C=C(c1ccc(C2CCCC2)cc1)C1COC2(OO1)C1CC3CC(C1)CC2C3` (stereo not drawn) [Trioxane 9a], the Cured/treated is 5/5.

On to `C=C(c1ccc(C2CCCCC2)cc1)C1COC2(OO1)C1CC3CC(C1)CC2C3` (stereo not drawn) [Trioxane 9b], for which the Cured/treated is recorded as 5/5.
